The values that follow are results of earlier work, collected in patent US11053255B2, “Synthesis of mahanine and related compounds” (Georgetown University, priority 2015, dated 2021).

The test system of one data set is RASSF1A. The conditions noted are these: human prostate cancer cells, dose-dependent.
A further data set deals with cyclin D1. Particulars: prostate cancer cells.
Data set [1] concerns androgen-responsive, LNCaP prostate cancer cells. Particulars: in vitro.
For data set [2], the system named is androgen-independent, PC3 prostate cancer cells. Particulars: in vitro.

Each structure is given as a SMILES string.

`CC(C)=CCC[C@]1(C)C=Cc2c(c(C)cc3c2[nH]c2cc(O)ccc23)O1` [mahanine, (R)-3,5-dimethyl-3-(4-methylpent-3-en-1-yl)-3,11-dihydropyrano[3,2-a]carbazol-9-ol]: the “expression of RASSF1A” value in the data set on RASSF1A is reported as “induces the expression of RASSF1A”. In addition, the “cyclin D1 transcriptional activity” value in the data set with cyclin D1 is “represses cyclin D1 transcriptional activity”. Further, in data set [1], the growth inhibition entry was “inhibits growth” and the induction of apoptosis result is recorded as “induces apoptosis”. Moreover, in data set [2], the growth inhibition entry is recorded as “inhibits growth” and the induction of apoptosis entry was “induces apoptosis”.
